Source: ChEMBL document CHEMBL5352508, “Discovery and Structure-Based Design of Inhibitors of the WD Repeat-Containing Protein 5 (WDR5)-MYC Interaction” (J Med Chem, 2023)
Values belong to the molecule of their own block, whether it stands above or below them. The source made the active and inactive calls. The calls are words filed in the database; no cut-off is given here.

Tests used:
WDR5-MYC [1] = target: T1, WDR5-MYC (Homo sapiens, UniProt P61964); test: Inhibition of N-terminal his-tagged WDR5 (1 to 334 residues) (unknown origin)/Biotin tagged Myc (256-268 residues) (unknown origin) interaction measured after 1 hrs by HTRF assay; type: protein assay
[2] = target: T2, Histone-lysine N-methyltransferase 2A/WDR5 (Homo sapiens) (UniProt P61964+Q03164); test: Inhibition of WDR5 (unknown origin)/MLL (unknown origin) interaction by NanoBiT assay; type: protein assay
HL-60 [3] = test: Downregulation of RPL37A gene expression in human HL-60 cells at 10 uM measured after 24 hrs by RT-qPCR assay; type: functional, cell-based
HL-60 [4] = test: Downregulation of RPL23 gene expression in human HL-60 cells at 10 uM measured after 24 hrs by RT-qPCR assay; type: functional, cell-based
HL-60 [5] = test: Effect on AURKB mRNA expression in human HL-60 cells measured after 24 hrs by RT-qPCR assay; type: functional, cell-based
HL-60 [6] = test: Downregulation of RPL17 gene expression in human HL-60 cells at 10 uM measured after 24 hrs by RT-qPCR assay; type: functional, cell-based
NCI-H520 = test: Antiproliferative activity against human NCI-H520 cells assessed as cell growth inhibition measured after 72 hrs by CellTier-Glo assay; type: functional
HL-60 [7] = test: Downregulation of RPL35 gene expression in human HL-60 cells at 10 uM measured after 24 hrs by RT-qPCR assay; type: functional, cell-based
HL-60 [8] = test: Effect on MCM4 mRNA expression in human HL-60 cells measured after 24 hrs by RT-qPCR assay; type: functional, cell-based
SHP77 = test: Antiproliferative activity against human SHP77 cells assessed as cell growth inhibition measured after 72 hrs by CellTier-Glo assay; type: functional
HL-60 [9] = test: Antiproliferative activity against human HL-60 cells assessed as cell growth inhibition measured after 72 hrs by CellTier-Glo assay; type: functional
Daudi = test: Antiproliferative activity against human Daudi cells assessed as cell growth inhibition measured after 72 hrs by CellTier-Glo assay; type: functional
Ramos = test: Antiproliferative activity against human Ramos cells assessed as cell growth inhibition measured after 72 hrs by CellTier-Glo assay; type: functional
NB-4 = test: Antiproliferative activity against human NB4 cells assessed as cell growth inhibition measured after 72 hrs by CellTier-Glo assay; type: functional
HL-60 [10] = test: Effect on MCM10 mRNA expression in human HL-60 cells measured after 24 hrs by RT-qPCR assay; type: functional, cell-based
COR-L279 = test: Antiproliferative activity against human COR-L279 cells assessed as cell growth inhibition measured after 72 hrs by CellTier-Glo assay; type: functional
NCI-H1650 = test: Antiproliferative activity against human NCI-H1650 cells assessed as cell growth inhibition measured after 72 hrs by CellTier-Glo assay; type: functional
HL-60 [11] = test: Effect on Cdc20 mRNA expression in human HL-60 cells measured after 24 hrs by RT-qPCR assay; type: functional, cell-based
[12] = Microsomal stability in mouse liver microsome assessed as intrinsic clearance; type: ADME; conditions: liver microsomes, read-out: CLH
[13] = Apparent permeability of the compound in dog MDCKII-LE cells measured upto 1.5 hrs; type: ADME, cell-based, Canis lupus familiaris; conditions: MDCK
WDR5-MYC [14] = target: T1, WDR5-MYC; test: Inhibition of his-tagged WDR5/flag-tagged MYC interaction overexpressed in HEK293T cells incubated for 5 hrs; type: cell-based
[15] = target: T3, WD repeat-containing protein 5 (Homo sapiens, UniProt P61964); test: Inhibition of N-terminal his-tagged WDR5 (1 to 334 residues) (unknown origin) measured after 10 mins by HTRF assay
WDR5-MYC [16] = target: T1, WDR5-MYC; test: Inhibition of WDR5 (unknown origin)/MYC (unknown origin) interaction; type: protein assay
HL-60 [17] = test: Downregulation of RPL37A gene expression in human HL-60 cells measured after 24 hrs by RT-qPCR assay; type: functional, cell-based; conditions: dose 3-10 µM
[18] = target: T3, WD repeat-containing protein 5; test: Inhibition of N-terminal his-tagged WDR5 (1 to 334 residues) (unknown origin) measured after 180 mins by HTRF assay relative to control
[19] = target: T3, WD repeat-containing protein 5; test: Inhibition of N-terminal his-tagged WDR5 (1 to 334 residues) (unknown origin) measured after 30 mins by HTRF assay relative to control
[20] = target: T3, WD repeat-containing protein 5; test: Inhibition of N-terminal his-tagged WDR5 (1 to 334 residues) (unknown origin) measured after 10 mins by HTRF assay relative to control
[21] = target: T3, WD repeat-containing protein 5; test: Inhibition of N-terminal his-tagged WDR5 (1 to 334 residues) (unknown origin) measured after 360 mins by HTRF assay relative to control
[22] = target: T3, WD repeat-containing protein 5; test: Inhibition of N-terminal his-tagged WDR5 (1 to 334 residues) (unknown origin) measured after 30 mins by HTRF assay
[23] = target: T3, WD repeat-containing protein 5; test: Inhibition of N-terminal his-tagged WDR5 (1 to 334 residues) (unknown origin) measured after 180 mins by HTRF assay
[24] = target: T3, WD repeat-containing protein 5; test: Inhibition of N-terminal his-tagged WDR5 (1 to 334 residues) (unknown origin) measured after 90 mins by HTRF assay relative to control
HL-60 [25] = test: Downregulation of RPL23 gene expression in human HL-60 cells measured after 24 hrs by RT-qPCR assay; type: functional, cell-based; conditions: dose 3-10 µM
[26] = target: T3, WD repeat-containing protein 5; test: Inhibition of N-terminal his-tagged WDR5 (1 to 334 residues) (unknown origin) measured after 90 mins by HTRF assay
HEK293T = test: Inhibition of RBBP5/flag-tagged WDR5 interaction in HEK293T cells overexpressing flag-tagged WDR5 upto 30 uM incubated for 6 hrs by coimmunoprecipitation assay; type: cell-based; conditions: Homo sapiens
[27] = target: T3, WD repeat-containing protein 5; test: Inhibition of N-terminal his-tagged WDR5 (1 to 334 residues) (unknown origin) measured after 360 mins by HTRF assay
HL-60 [28] = test: Downregulation of RPL17 gene expression in human HL-60 cells measured after 24 hrs by RT-qPCR assay; type: functional, cell-based; conditions: dose 3-10 µM
HL-60 [29] = test: Downregulation of RPL35 gene expression in human HL-60 cells measured after 24 hrs by RT-qPCR assay; type: functional, cell-based; conditions: dose 3-10 µM
WDR5-MYC (Homo sapiens) = WDR5-MYC (Homo sapiens) (UniProt P61964+P01106); test: Inhibition of flag-tagged WDR5/endogenous MYC interaction in HEK293T cells overexpressing flag tagged WDR5 incubated for 6 hrs by coimmunoprecipitation assay; type: cell-based; conditions: dose 5-30 µM
[30] = target: T2, Histone-lysine N-methyltransferase 2A/WDR5 (Homo sapiens); test: Inhibition of MLL/flag-tagged WDR5 interaction in HEK293T cells overexpressing flag-tagged WDR5 upto 30 uM incubated for 6 hrs by coimmunoprecipitation assay; type: cell-based

SMILES: Cc1cc(=O)c(C(=O)NCc2c(F)cc(N3CCCC(C)(C)C3)cc2F)nn1-c1ccccc1
- IC50 (WDR5-MYC [1]): 2.46 µM

SMILES: Cc1cc(=O)c(C(=O)NCc2c(F)cc(N3CC[C@@H](F)C3)cc2F)nn1-c1cccc(CC(=O)O)c1
- IC50 (WDR5-MYC [1]): 1.43 µM

SMILES: Cc1cc(=O)c(C(=O)NCc2c(F)cc(-c3ccccc3)cc2F)nn1-c1cccnc1
- IC50 (WDR5-MYC [1]): 25.4 µM

SMILES: Cc1cc(=O)c(C(=O)N(C)Cc2c(F)cc(C3CCCOC3)cc2F)nn1-c1ccccc1 (stereo unspecified)
- inhibition [2]: inactive
- Activity (HL-60 [3]): inactive
- Activity (HL-60 [4]): inactive
- Activity (HL-60 [5]): inactive
- Activity (HL-60 [6]): inactive
- IC50 (WDR5-MYC [1]): 43.4 µM
- GI50 (NCI-H520): > 50 µM
- Activity (HL-60 [7]): inactive
- Activity (HL-60 [8]): inactive
- GI50 (SHP77): > 50 µM
- GI50 (HL-60 [9]): > 50 µM
- GI50 (Daudi): > 50 µM
- GI50 (Ramos): > 50 µM
- GI50 (NB-4): > 50 µM
- Activity (HL-60 [10]): inactive
- GI50 (COR-L279): > 50 µM
- GI50 (NCI-H1650): > 50 µM
- Activity (HL-60 [11]): inactive

SMILES: Cc1cc(=O)c(C(=O)NCc2c(F)cc(-c3cccc(S(=O)(=O)F)c3)cc2F)nn1-c1ccccc1
- microsomal CLint [12]: 46.9 µL/min/mg
- Papp at 1.5 h [13]: 1.77 ×10⁻⁶ cm/s
- inhibition [2]: inactive
- IC50 (WDR5-MYC [14]): 4.8 µM
- IC50 [15]: 2.09 µM
- IC50 (WDR5-MYC [16]): 5.8 µM
- Activity (HL-60 [5]): inactive
- Activity (HL-60 [17]): Dose-Dependent Effect
- IC50 (WDR5-MYC [1]): 0.39 µM
- inhibition [18]: 88.5%
- inhibition [19]: 64%
- inhibition [20]: 59.3%
- inhibition [21]: 91.9%
- GI50 (NCI-H520): 9.4 µM
- IC50 [22]: 0.79 µM
- IC50 [23]: 0.17 µM
- Activity (HL-60 [8]): inactive
- GI50 (SHP77): 16.6 µM
- inhibition [24]: 78.5%
- GI50 (HL-60 [9]): 4.6 µM
- GI50 (Daudi): 15.4 µM
- GI50 (Ramos): 4.3 µM
- Activity (HL-60 [25]): Dose-Dependent Effect
- GI50 (NB-4): 7.1 µM
- Activity (HL-60 [10]): inactive
- GI50 (COR-L279): 4.2 µM
- IC50 [26]: 0.3 µM
- GI50 (NCI-H1650): 22.6 µM
- inhibition (HEK293T): inactive
- IC50 [27]: 0.1 µM
- Activity (HL-60 [28]): Dose-Dependent Effect
- Activity (HL-60 [29]): Dose-Dependent Effect
- inhibition (WDR5-MYC (Homo sapiens)): Dose-Dependent Effect
- Activity (HL-60 [11]): inactive
- inhibition [30]: inactive

SMILES: Cc1cc(=O)c(C(=O)NCc2c(F)cc(N3CC[C@@H](F)C3)cc2F)nn1-c1cccc(CC(N)=O)c1
- IC50 (WDR5-MYC [1]): 3.15 µM

SMILES: CCCC[C@@H](Cc1c(F)cc(-c2cccc(S(=O)(=O)F)c2)cc1F)C(=O)Nc1nnn[nH]1
- microsomal CLint [12]: 150 µL/min/mg
- Papp at 1.5 h [13]: 0.96 ×10⁻⁶ cm/s

SMILES: CC(=O)c1cccc(-c2cc(F)c(CNC(=O)c3nn(-c4ccccc4)c(C)cc3=O)c(F)c2)c1
- IC50 (WDR5-MYC [1]): 8.13 µM

The remaining molecules from weak to strong by IC50 (WDR5-MYC [1]), led by results:

- IC50 (WDR5-MYC [1]): 15.8 µM
SMILES: Cc1cc(=O)c(C(=O)NCc2c(F)cc(-c3ccccc3)cc2F)nn1-c1ccccc1

- IC50 (WDR5-MYC [1]): 13.9 µM
SMILES: Cc1cc(=O)c(O)c(C(=O)NCc2ccc(-c3ccccc3C#N)cc2)o1

- IC50 (WDR5-MYC [1]): 4.45 µM
SMILES: Cc1cc(=O)c(C(=O)NCc2c(F)cc(-c3cccnc3)cc2F)nn1-c1ccccc1

- IC50 (WDR5-MYC [1]): 1.93 µM
SMILES: Cc1cc(=O)c(C(=O)NCc2c(F)cc(N3CC[C@@H](F)C3)cc2F)nn1-c1cccc(C(N)=O)c1

- IC50 (WDR5-MYC [1]): 1.58 µM
SMILES: Cc1cc(=O)c(C(=O)NCc2c(F)cc(C3=CC(=O)CCC3)cc2F)nn1-c1ccccc1

- IC50 (WDR5-MYC [1]): 0.91 µM
SMILES: Cc1cc(=O)c(C(=O)NCc2c(F)cc(-c3cccc(S(=O)(=O)O)c3)cc2F)nn1-c1ccccc1
